These results are taken from ChEMBL document CHEMBL1909046, “DrugMatrix in vitro pharmacology data”.

Test [1] addresses T1, Alpha-1B adrenergic receptor (Rattus norvegicus, UniProt P15823).
T1 sequence (P15823 whole entry): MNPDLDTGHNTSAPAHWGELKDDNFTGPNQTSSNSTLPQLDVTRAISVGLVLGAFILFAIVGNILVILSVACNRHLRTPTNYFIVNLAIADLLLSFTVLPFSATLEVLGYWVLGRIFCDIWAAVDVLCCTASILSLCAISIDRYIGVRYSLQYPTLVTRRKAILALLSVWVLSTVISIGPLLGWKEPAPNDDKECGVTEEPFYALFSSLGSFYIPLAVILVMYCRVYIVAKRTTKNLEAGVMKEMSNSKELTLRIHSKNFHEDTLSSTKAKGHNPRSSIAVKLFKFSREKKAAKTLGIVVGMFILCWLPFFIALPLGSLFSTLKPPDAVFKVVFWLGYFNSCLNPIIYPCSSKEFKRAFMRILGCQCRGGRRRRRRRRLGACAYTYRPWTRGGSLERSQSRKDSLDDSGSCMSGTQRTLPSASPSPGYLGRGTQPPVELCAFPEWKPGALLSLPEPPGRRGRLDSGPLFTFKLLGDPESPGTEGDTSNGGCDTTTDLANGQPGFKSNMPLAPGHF
Description: DRUGMATRIX: Alpha-1B adrenergic receptor radioligand binding (ligand: prazosin). The note with it: Not Active = under 50% inhibition at 10 µM; for Ki: read-out: Ki. The format is cell membranes, Wistar, Liver, Membrane.

For the next test, the target named is Substance-P receptor (Homo sapiens, UniProt P25103). The format is cell membranes, CHO, Membrane. The note with it: cho. Note: in other assays of this panel Not Active means under 50% inhibition at 10 µM.
Substance-P receptor, sequence (P25103 whole entry): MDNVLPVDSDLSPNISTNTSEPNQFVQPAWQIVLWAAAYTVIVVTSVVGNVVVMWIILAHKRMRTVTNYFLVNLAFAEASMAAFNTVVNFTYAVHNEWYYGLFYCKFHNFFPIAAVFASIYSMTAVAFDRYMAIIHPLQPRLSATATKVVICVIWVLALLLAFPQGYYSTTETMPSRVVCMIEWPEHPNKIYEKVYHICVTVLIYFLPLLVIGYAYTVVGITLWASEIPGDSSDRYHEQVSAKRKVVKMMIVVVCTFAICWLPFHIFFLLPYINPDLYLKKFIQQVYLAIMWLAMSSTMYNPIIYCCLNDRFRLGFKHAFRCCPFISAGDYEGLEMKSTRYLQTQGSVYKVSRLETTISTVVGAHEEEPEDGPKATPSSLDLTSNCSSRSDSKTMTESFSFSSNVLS
In test [2] the target is Vascular endothelial growth factor receptor 1 (Homo sapiens, UniProt P17948). The format is cell-based. The note with it: huvec. Note: in other assays of this panel Not Active means under 50% inhibition at 10 µM.
Vascular endothelial growth factor receptor 1, sequence (P17948 whole entry): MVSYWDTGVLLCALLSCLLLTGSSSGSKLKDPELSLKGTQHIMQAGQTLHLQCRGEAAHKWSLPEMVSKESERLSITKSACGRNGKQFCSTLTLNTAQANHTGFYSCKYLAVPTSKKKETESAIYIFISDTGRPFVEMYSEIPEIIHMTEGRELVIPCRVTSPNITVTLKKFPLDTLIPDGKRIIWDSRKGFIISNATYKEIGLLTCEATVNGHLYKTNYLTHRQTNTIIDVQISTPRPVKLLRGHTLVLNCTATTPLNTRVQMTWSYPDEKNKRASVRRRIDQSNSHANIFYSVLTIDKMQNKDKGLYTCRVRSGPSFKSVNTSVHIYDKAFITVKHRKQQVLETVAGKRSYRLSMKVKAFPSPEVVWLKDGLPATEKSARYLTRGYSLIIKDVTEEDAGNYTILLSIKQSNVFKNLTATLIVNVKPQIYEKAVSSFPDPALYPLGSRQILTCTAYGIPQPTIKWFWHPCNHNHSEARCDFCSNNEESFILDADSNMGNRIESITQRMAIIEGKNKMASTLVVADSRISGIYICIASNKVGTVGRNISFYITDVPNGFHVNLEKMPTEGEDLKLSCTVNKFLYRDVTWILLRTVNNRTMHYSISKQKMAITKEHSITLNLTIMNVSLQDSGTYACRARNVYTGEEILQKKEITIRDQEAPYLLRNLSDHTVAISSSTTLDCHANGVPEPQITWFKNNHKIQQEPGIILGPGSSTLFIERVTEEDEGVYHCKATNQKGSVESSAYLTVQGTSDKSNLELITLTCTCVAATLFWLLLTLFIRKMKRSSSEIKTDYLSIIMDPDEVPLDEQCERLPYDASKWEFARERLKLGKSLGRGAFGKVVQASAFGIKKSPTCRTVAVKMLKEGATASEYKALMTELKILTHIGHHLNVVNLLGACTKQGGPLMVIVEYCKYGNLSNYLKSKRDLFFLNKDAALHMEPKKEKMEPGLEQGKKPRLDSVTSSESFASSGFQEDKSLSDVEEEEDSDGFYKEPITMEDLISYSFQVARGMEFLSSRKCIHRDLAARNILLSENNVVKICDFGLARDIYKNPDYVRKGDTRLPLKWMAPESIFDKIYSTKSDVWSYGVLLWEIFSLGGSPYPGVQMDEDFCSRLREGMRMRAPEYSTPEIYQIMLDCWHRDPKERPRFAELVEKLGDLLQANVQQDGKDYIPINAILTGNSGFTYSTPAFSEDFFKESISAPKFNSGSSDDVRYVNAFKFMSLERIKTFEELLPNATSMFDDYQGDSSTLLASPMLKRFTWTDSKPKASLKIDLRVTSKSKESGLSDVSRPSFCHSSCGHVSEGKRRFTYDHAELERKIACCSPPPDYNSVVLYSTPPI
The target of a further test is D(1A) dopamine receptor (Homo sapiens, UniProt P21728). Description: DRUGMATRIX: Dopamine D1 radioligand binding (ligand: [3H] SCH-23390). The note with it: cho; Not Active = under 50% inhibition at 10 µM. In kind it is cell membranes, CHO, Membrane.
D(1A) dopamine receptor, sequence (P21728 whole entry): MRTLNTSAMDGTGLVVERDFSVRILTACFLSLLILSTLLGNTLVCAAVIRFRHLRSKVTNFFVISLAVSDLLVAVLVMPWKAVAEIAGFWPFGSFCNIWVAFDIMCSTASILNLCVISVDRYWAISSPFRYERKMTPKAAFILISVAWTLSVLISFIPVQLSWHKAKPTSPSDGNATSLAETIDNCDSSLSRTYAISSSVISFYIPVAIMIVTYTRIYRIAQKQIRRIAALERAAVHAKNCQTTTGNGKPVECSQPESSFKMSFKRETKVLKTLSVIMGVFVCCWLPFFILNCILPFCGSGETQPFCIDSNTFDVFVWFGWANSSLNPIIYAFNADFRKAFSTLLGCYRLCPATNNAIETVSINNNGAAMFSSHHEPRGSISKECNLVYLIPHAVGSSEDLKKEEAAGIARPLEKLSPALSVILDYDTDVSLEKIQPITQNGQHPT
Test [3] has as its target Delta-type opioid receptor (Homo sapiens, UniProt P41143). In kind it is cell membranes, HEK293, Membrane. The note with it: hek293. Note: in other assays of this panel Not Active means under 50% inhibition at 10 µM.
Test [4] deals with cGMP-specific 3',5'-cyclic phosphodiesterase (Homo sapiens, UniProt O76074). Description: DRUGMATRIX: Phosphodiesterase PDE5 enzyme inhibition (substrate: [3H]cGMP + cGMP). In kind it is tissue-based, Platelet. The note with it: platelet; Not Active = under 50% inhibition at 10 µM.

Delta-type opioid receptor, sequence (P41143 whole entry): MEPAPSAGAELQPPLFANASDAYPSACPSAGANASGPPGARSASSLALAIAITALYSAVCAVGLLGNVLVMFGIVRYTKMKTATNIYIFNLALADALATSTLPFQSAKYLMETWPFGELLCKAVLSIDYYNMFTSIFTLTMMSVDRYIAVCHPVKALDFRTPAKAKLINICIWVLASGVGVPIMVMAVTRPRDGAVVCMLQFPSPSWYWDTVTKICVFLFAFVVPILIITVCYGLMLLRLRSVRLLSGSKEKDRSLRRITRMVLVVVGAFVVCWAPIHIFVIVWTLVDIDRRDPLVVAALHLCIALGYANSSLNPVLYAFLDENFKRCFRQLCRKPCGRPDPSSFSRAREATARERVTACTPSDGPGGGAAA

With `C[N+](C)(C)C[C@H](O)CC(=O)[O-]` [LEVOCARNITINE], the IC50 entry (in test [1]; against Substance-P receptor; in test [2]; on D(1A) dopamine receptor; in test [3]; in test [4]) was “Not Active” in each case.

Regarding `C[C@H]1COc2c(N3CCN(C)CC3)c(F)cc3c(=O)c(C(=O)O)cn1c23.C[C@H]1COc2c(N3CCN(C)CC3)c(F)cc3c(=O)c(C(=O)O)cn1c23.O` [LEVOFLOXACIN], the IC50 result (in test [1]; on Substance-P receptor; in test [2]; on D(1A) dopamine receptor; in test [3]; in test [4]) was “Not Active” in each case.

For `CCn1cc(C(=O)O)c(=O)c2cc(F)c(N3CCNC(C)C3)c(F)c21` (centres undefined) [LOMEFLOXACIN], the IC50 result (in test [1]; at Substance-P receptor; in test [2]; at D(1A) dopamine receptor; in test [3]; in test [4]) was “Not Active” in each case.

`CN1CCCC(CN2c3ccccc3Sc3ccccc32)C1` (centres undefined) [MEPAZINE]: the IC50 (usually the concentration that inhibits the measured activity by half) in test [1] (read-out: IC50) was 61 nM; against Substance-P receptor it was “Not Active”; in test [2] it was “Not Active”; at D(1A) dopamine receptor, “Not Active”; in test [3], “Not Active”; in test [4], “Not Active”. Further, the Ki (in general, a measure of affinity in units of concentration, obtained from inhibition or displacement) in test [1] was found to be 34 nM.

As to `Cc1cccc(C)c1NC(=O)C1CCCCN1C` (centres undefined) [MEPIVACAINE], the IC50 entry (in test [1]; against Substance-P receptor; in test [2]; on D(1A) dopamine receptor; in test [3]; in test [4]) was “Not Active” each time.

On to `CN(C)C(=N)NC(=N)N` [METFORMIN], for which the IC50 entry (in test [1]; against Substance-P receptor; in test [2]; at D(1A) dopamine receptor; in test [3]; in test [4]) was “Not Active” each time.

As for `CC(C)(C)NCC(O)COc1cccc2c1CC(O)C(O)C2` (centres undefined) [NADOLOL], the IC50 result (in test [1]; on Substance-P receptor; in test [2]; at D(1A) dopamine receptor; in test [3]; in test [4]) was “Not Active” throughout.

In the case of `C[C@]12CC[C@H]3[C@@H](CCC4=CC(=O)CC[C@@H]43)[C@@H]1CC[C@@H]2O` [NANDROLONE], the IC50 entry (in test [1]; on Substance-P receptor; in test [2]; on D(1A) dopamine receptor; in test [3]; in test [4]) was “Not Active” throughout.

As to `C[C@@H]1C/C=C/C=C/C=C/C=C/[C@H](O[C@@H]2O[C@H](C)[C@@H](O)[C@H](N)[C@@H]2O)C[C@@H]2O[C@](O)(C[C@@H](O)C[C@H]3O[C@@H]3/C=C/C(=O)O1)C[C@H](O)[C@H]2C(=O)O` [NATAMYCIN], the IC50 result (in test [1]; at Substance-P receptor; in test [2]; at D(1A) dopamine receptor; in test [3]; in test [4]) was “Not Active” throughout.

Regarding `CN(C)C(=O)Oc1cccc([N+](C)(C)C)c1.[Br-]` [NEOSTIGMINE BROMIDE], the IC50 entry (in test [1]; against Substance-P receptor; in test [2]; at D(1A) dopamine receptor; in test [3]; in test [4]) was “Not Active” in each case.

As to `NC(=O)c1cccnc1` [NIACINAMIDE], the IC50 result (in test [1]; at Substance-P receptor; in test [2]; on D(1A) dopamine receptor; in test [3]; in test [4]) was “Not Active” in each case.

As for `CS(=O)(=O)Nc1ccc([N+](=O)[O-])cc1Oc1ccccc1` [NIMESULIDE], the IC50 entry (in test [1]; against Substance-P receptor; in test [2]; at D(1A) dopamine receptor; in test [3]; in test [4]) was “Not Active” each time.

In the case of `CN1C(=O)CN=C(c2ccccc2)c2cc([N+](=O)[O-])ccc21` [NIMETAZEPAM], the half-inhibitory concentration (IC50) entry (in test [1]; against Substance-P receptor; in test [2]; at D(1A) dopamine receptor; in test [3]; in test [4]) was “Not Active” in each case.

Take `COc1ccc2c(c1OC)C(=O)O[C@@H]2[C@H]1c2c(cc3c(c2OC)OCO3)CCN1C` [NOSCAPINE]: the IC50 entry (in test [1]; against Substance-P receptor; in test [2]; on D(1A) dopamine receptor; in test [3]; in test [4]) was “Not Active” each time.

Regarding `C[C@@H]1O[C@@H](O[C@H]2C[C@@H](O)[C@]3(CO)[C@H]4[C@H](O)C[C@]5(C)[C@@H](C6=CC(=O)OC6)CC[C@]5(O)[C@@H]4CC[C@]3(O)C2)[C@H](O)[C@H](O)[C@H]1O` [OUABAIN], the IC50 result (in test [1]; at Substance-P receptor; in test [2]; on D(1A) dopamine receptor; in test [3]; in test [4]) was “Not Active” in each case.

As for `NC(=O)N1c2ccccc2CC(=O)c2ccccc21` [OXCARBAZEPINE], the IC50 entry (in test [1]; against Substance-P receptor; in test [2]; on D(1A) dopamine receptor; in test [3]; in test [4]) was “Not Active” in each case.

With `COc1ccnc(C[S+]([O-])c2nc3ccc(OC(F)F)cc3[nH]2)c1OC` (centres undefined) [PANTOPRAZOLE], the IC50 result (in test [1]; at Substance-P receptor; in test [2]; at D(1A) dopamine receptor; in test [3]; in test [4]) was “Not Active” each time.

On to `N=C(N)c1ccc(OCCCCCOc2ccc(C(=N)N)cc2)cc1` [PENTAMIDINE], for which the IC50 in test [1] (read-out: IC50) is 967 nM; against Substance-P receptor, “Not Active”; in test [2], “Not Active”; at D(1A) dopamine receptor, “Not Active”; in test [3], “Not Active”; in test [4], “Not Active”. In addition, in test [1], the Ki came out at 535 nM.

As to `NNCCc1ccccc1` [PHENELZINE], the IC50 entry (in test [1]; against Substance-P receptor; in test [2]; at D(1A) dopamine receptor; in test [3]; in test [4]) was “Not Active” throughout.

As to `CCc1ccc(CCOc2ccc(CC3SC(=O)NC3=O)cc2)nc1` (centres undefined) [PIOGLITAZONE], the IC50 entry (in test [1]; at Substance-P receptor; in test [2]; at D(1A) dopamine receptor; in test [3]; in test [4]) was “Not Active” each time.

With `CCCNC(C)C(=O)Nc1ccccc1C` (centres undefined) [PRILOCAINE], the IC50 result (in test [1]; against Substance-P receptor; in test [2]; at D(1A) dopamine receptor; in test [3]; in test [4]) was “Not Active” in each case.

As to `CCN(CC)CCNC(=O)c1ccc(N)cc1` [PROCAINAMIDE], the IC50 entry (in test [1]; on Substance-P receptor; in test [2]; on D(1A) dopamine receptor; in test [3]; in test [4]) was “Not Active” in each case.
